Source: US8980830B2 (priority 2007, dated 2015)
Read-outs that look alike come from different tables or passages of the source. Each block holds one compound with its values, some of them ahead of it. Bridge positions count the residues as written; N and C are the ends. Square brackets hold non-standard residues; d marks the D form. Side chains are listed from the residue outwards. Ends that are not written are not given here. Peptide text beside a SMILES is read from it. PhLac = O=C(O)[C@@H](O)Cc1ccccc1

What was measured:
[1] = Glucagon solubility assay; settings: Table 10
[2] = molecular target: GLP-1 Receptor (Homo sapiens, UniProt P43220); assay: Functional assay, cAMP induction (luciferase reporter, HEK293) at GLP-1 receptor; type: cell-based
Sequence of GLP-1 Receptor (P43220 24-463): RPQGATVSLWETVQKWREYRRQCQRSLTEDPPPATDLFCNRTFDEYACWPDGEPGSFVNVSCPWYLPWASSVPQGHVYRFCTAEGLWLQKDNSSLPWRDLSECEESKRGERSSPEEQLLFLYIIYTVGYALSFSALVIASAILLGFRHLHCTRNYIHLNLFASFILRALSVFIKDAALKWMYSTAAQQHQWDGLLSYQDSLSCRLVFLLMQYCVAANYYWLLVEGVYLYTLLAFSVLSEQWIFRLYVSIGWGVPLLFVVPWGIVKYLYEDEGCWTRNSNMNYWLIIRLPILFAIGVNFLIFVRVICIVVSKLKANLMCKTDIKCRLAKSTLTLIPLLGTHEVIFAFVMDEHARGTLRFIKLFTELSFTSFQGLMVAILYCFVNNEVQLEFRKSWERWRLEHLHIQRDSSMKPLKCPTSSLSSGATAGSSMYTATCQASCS

[3] = molecular target: T1, Glucagon Receptor (Homo sapiens, UniProt P47871); assay: cAMP inhibition: antagonism of glucagon-induced cAMP at glucagon receptor; type: cell-based; set-up: expressed in transfected cells; host or cells: HEK293
T1 sequence (P47871 26-477): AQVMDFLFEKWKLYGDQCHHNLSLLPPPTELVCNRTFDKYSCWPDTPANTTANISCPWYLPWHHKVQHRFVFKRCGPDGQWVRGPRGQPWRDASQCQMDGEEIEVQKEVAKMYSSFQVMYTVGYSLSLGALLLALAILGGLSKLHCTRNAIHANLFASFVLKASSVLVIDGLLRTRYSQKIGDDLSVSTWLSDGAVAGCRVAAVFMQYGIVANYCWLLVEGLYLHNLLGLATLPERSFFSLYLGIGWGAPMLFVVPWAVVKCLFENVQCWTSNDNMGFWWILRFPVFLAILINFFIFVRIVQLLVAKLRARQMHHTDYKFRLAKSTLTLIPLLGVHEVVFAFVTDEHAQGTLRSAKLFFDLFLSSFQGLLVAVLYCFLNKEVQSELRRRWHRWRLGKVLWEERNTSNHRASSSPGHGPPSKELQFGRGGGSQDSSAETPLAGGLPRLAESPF

[4] = molecular target: T1, Glucagon Receptor; assay: Glucagon receptor binding assay (scintillation proximity competition binding)
[5] = pH 7
[6] = molecular target: T1, Glucagon Receptor; assay: Functional assay, cAMP induction (luciferase reporter, HEK293) at glucagon receptor; type: cell-based; set-up: expressed in transfected cells; host or cells: HEK293
[7] = Table 7, average ±STD, at least three experiments
[8] = read-out: IC50 (nM) (Receptor binding), Table 12

Compound: CSCC[C@H](NC(=O)[C@H](CC(C)C)NC(=O)[C@H](Cc1c[nH]c2ccccc12)NC(=O)[C@H](CCC(N)=O)NC(=O)[C@@H](NC(=O)[C@H](Cc1ccccc1)NC(=O)[C@H](CC(=O)O)NC(=O)[C@H](CCC(N)=O)NC(=O)[C@H](C)NC(=O)[C@H](CCCNC(=N)N)NC(=O)[C@H](CCCNC(=N)N)NC(=O)[C@H](CO)NC(=O)[C@H](CC(=O)O)NC(=O)[C@H](CC(C)C)NC(=O)[C@H](Cc1ccc(O)cc1)NC(=O)[C@H](CCCCN)NC(=O)[C@H](CO)NC(=O)[C@H](Cc1ccc(O)cc1)NC(=O)[C@H](CC(=O)O)NC(=O)[C@H](CO)NC(=O)[C@@H](NC(=O)[C@@H](O)Cc1ccccc1)[C@@H](C)O)C(C)C)C(=O)N[C@@H](CC(N)=O)C(=O)N[C@H](C(N)=O)[C@@H](C)O [[PLA^6, D^9]Glucagon(aa6-29)-NH2] (H-[PhLac]TSDYSKYLDSRRAQDFVQWLMNT-NH2)
Solubility (%, pH 6-8) [1]: 11%

Compound: CSCC[C@H](NC(=O)[C@H](CC(C)C)NC(=O)[C@H](Cc1c[nH]c2ccccc12)NC(=O)[C@H](CCC(N)=O)NC(=O)[C@@H](NC(=O)[C@H](Cc1ccccc1)NC(=O)[C@H](CC(=O)O)NC(=O)[C@H](CCC(N)=O)NC(=O)[C@H](C)NC(=O)[C@H](CCCNC(=N)N)NC(=O)[C@H](CCCNC(=N)N)NC(=O)[C@H](CO)NC(=O)[C@H](CC(=O)O)NC(=O)[C@H](CC(C)C)NC(=O)[C@H](Cc1ccc(O)cc1)NC(=O)[C@H](CCCCN)NC(=O)[C@H](CO)NC(=O)[C@H](Cc1ccc(O)cc1)NC(=O)[C@H](CCC(=O)O)NC(=O)[C@H](CO)NC(=O)[C@@H](NC(=O)[C@@H](O)Cc1ccccc1)[C@@H](C)O)C(C)C)C(=O)N[C@@H](CC(N)=O)C(=O)N[C@H](C(=O)NCC(=O)N1CCC[C@H]1C(=O)N[C@@H](CO)C(=O)N[C@@H](CO)C(=O)NCC(=O)N[C@@H](C)C(=O)N1CCC[C@H]1C(=O)N1CCC[C@H]1C(=O)N1CCC[C@H]1C(=O)N[C@@H](CO)C(N)=O)[C@@H](C)O [[PLA^6, E^9]Glucagon (aa6-29 + CEX)-NH2] (H-[PhLac]TSEYSKYLDSRRAQDFVQWLMNTGPSSGAPPPS-NH2)
Solubility (%, pH 6-8) [1]: 16%

Compound: CSCC[C@H](NC(=O)[C@H](CC(C)C)NC(=O)[C@H](Cc1c[nH]c2ccccc12)NC(=O)[C@H](CCC(N)=O)NC(=O)[C@@H](NC(=O)[C@H](Cc1ccccc1)NC(=O)[C@H](CC(=O)O)NC(=O)[C@H](CCC(N)=O)NC(=O)[C@H](C)NC(=O)[C@H](CCCNC(=N)N)NC(=O)[C@H](CCCNC(=N)N)NC(=O)[C@H](CO)NC(=O)[C@H](CC(=O)O)NC(=O)[C@H](CC(C)C)NC(=O)[C@H](Cc1ccc(O)cc1)NC(=O)[C@H](CCCCN)NC(=O)[C@H](CO)NC(=O)[C@H](Cc1ccc(O)cc1)NC(=O)[C@H](CCC(=O)O)NC(=O)[C@H](CO)NC(=O)[C@@H](NC(=O)[C@@H](O)Cc1ccccc1)[C@@H](C)O)C(C)C)C(=O)N[C@@H](CC(N)=O)C(=O)N[C@H](C(N)=O)[C@@H](C)O [[PLA^6, E^9]Glucagon(aa6-29)-NH2] (H-[PhLac]TSEYSKYLDSRRAQDFVQWLMNT-NH2)
GLP-1 agonism EC50(nM) ([2]; Table 25): No agonism | Solubility (%, pH 6-8) [1]: 11% | IC50 ([3]; Glucagon antagonism IC50(nM, inhibit 0.5nM G), Table 25): 23.7 ± 4.16 nM | IC50 ([4]; read-out: IC50 (nM) (Receptor binding), Table 11, ND: not detected): 12.3 ± 0.13 nM

Compound: FTSEYSKYLDSRRAQDFVQWLMNT-NH2 [[Glu^9]Glucagon(aa6-29)-NH2]
cAMP pA2 [3]: 7.16 ± 0.27 | IC50 [4, 7]: 36.4 ± 5.23 nM | IC50 ([4]; read-out: IC50 (nM) receptor binding, Table 9): 36.4 ± 5.23 nM

Compound: Glucagon Cys^17 Mal-PEG-5K [Glucagon, Cys17PEG5K]
Percent Soluble [5]: 94%

Compound: [E^9, C^24 (20kDaPEG)]Glucagon(aa6-29)-NH2 (FTSEYSKYLDSRRAQDFVC(PEG 20 kDa)WLMNT-NH2)
IC50 (nM) (cAMP, inhibit 0.2 mM Glucagon) ([3]; Table 12): no antagonism | IC50 [4, 8]: > 1000 nM | IC50 ([4]; read-out: IC50 (nM) (Receptor binding), Table 12, listed as [Phe^6, E^9, C^24(20kDaPEG)]Glucagon(aa6-29)-NH2): > 10000 nM

Compound: [K^5(CH2CH2S-20kDaPEG), E^9]Glucagon(aa5-29)-NH2 (K([CH2CH2S-PEG 20 kDa])FTSEYSKYLDSRRAQDFVQWLMNT-NH2)
IC50 (nM) (cAMP, inhibit 0.2 mM Glucagon) ([3]; Table 12): no antagonism | IC50 [4, 8]: > 10000 nM

Compound: [PLA6, E16K20(Lactam), C24(20 kDa), D28]G(6-29) ([PhLac]TSDYSKYLDERRAKDFVC(PEG 20 kDa)WLMDT-NH2; lactam 11-15)
EC50 ([2]; read-out: GLP-1 agonism EC50, Table 21): 450 to 1840 nM | IC50 ([3]; read-out: Glucagon antagonism IC50(nM) (inhibit 0.2-0.8 nM glucagon)): 374 to 1460 nM

Compound: [d-Cys^5(20kDaPEG), E^9]Glucagon(aa5-29)-NH2 ([dC](PEG 20 kDa)FTSEYSKYLDSRRAQDFVQWLMNT-NH2)
IC50 ([3]; read-out: IC50 (nM) (cAMP, inhibit 0.2 mM Glucagon), Table 12, inhibit 0.2 mM Glucagon): 14800 nM | IC50 [4, 8]: > 10000 nM

More lines, now with the values ahead:

Solubility (%, pH 6-8) [1]: 100%
Compound: CSCC[C@H](NC(=O)[C@H](CC(C)C)NC(=O)[C@H](Cc1c[nH]c2ccccc12)NC(=O)[C@H](CCC(N)=O)NC(=O)[C@@H](NC(=O)[C@H](Cc1ccccc1)NC(=O)[C@H](CC(=O)O)NC(=O)[C@H](CCC(N)=O)NC(=O)[C@H](C)NC(=O)[C@H](CCCNC(=N)N)NC(=O)[C@H](CCCNC(=N)N)NC(=O)[C@H](CO)NC(=O)[C@H](CC(=O)O)NC(=O)[C@H](CC(C)C)NC(=O)[C@H](Cc1ccc(O)cc1)NC(=O)[C@H](CCCCN)NC(=O)[C@H](CO)NC(=O)[C@H](Cc1ccc(O)cc1)NC(=O)[C@H](CC(=O)O)NC(=O)[C@H](CO)NC(=O)[C@@H](NC(=O)[C@@H](O)Cc1ccccc1)[C@@H](C)O)C(C)C)C(=O)N[C@@H](CC(=O)O)C(=O)N[C@H](C(N)=O)[C@@H](C)O [[PLA^6, D^9, D^28] Glucagon(aa6-29)-NH2]

Solubility (%, pH 6-8) [1]: 96%
Compound: CSCC[C@H](NC(=O)[C@H](CC(C)C)NC(=O)[C@H](Cc1c[nH]c2ccccc12)NC(=O)[C@H](CCC(N)=O)NC(=O)[C@@H](NC(=O)[C@H](Cc1ccccc1)NC(=O)[C@H](CC(=O)O)NC(=O)[C@H](CCC(N)=O)NC(=O)[C@H](C)NC(=O)[C@H](CCCNC(=N)N)NC(=O)[C@H](CCCNC(=N)N)NC(=O)[C@H](CO)NC(=O)[C@H](CC(=O)O)NC(=O)[C@H](CC(C)C)NC(=O)[C@H](Cc1ccc(O)cc1)NC(=O)[C@H](CCCCN)NC(=O)[C@H](CO)NC(=O)[C@H](Cc1ccc(O)cc1)NC(=O)[C@H](CC(=O)O)NC(=O)[C@H](CO)NC(=O)[C@@H](NC(=O)[C@@H](O)Cc1ccccc1)[C@@H](C)O)C(C)C)C(=O)N[C@@H](CC(N)=O)C(=O)N[C@H](C(=O)O)[C@@H](C)O [[PLA^6, D^9]Glucagon(aa6-29)-COOH] (H-[PhLac]TSDYSKYLDSRRAQDFVQWLMNT-OH)

EC50 ([2]; GLP-1 agonism EC50 (nM), Table 20): 45.7 ± 12.3 nM | IC50 ([3]; Glucagon antagonism IC50 (nM, inhibit 0.8 nM glucagon), Table 24): 20.8 ± 3.09 nM
Compound: CSCC[C@H](NC(=O)[C@H](CC(C)C)NC(=O)[C@H](Cc1c[nH]c2ccccc12)NC(=O)[C@H](CCC(N)=O)NC(=O)[C@@H](NC(=O)[C@H](Cc1ccccc1)NC(=O)[C@H](CC(=O)O)NC(=O)[C@@H]1CCCCNC(=O)CC[C@H](NC(=O)[C@H](CC(=O)O)NC(=O)[C@H](CC(C)C)NC(=O)[C@H](Cc2ccc(O)cc2)NC(=O)[C@H](CCCCN)NC(=O)[C@H](CO)NC(=O)[C@H](Cc2ccc(O)cc2)NC(=O)[C@H](CC(=O)O)NC(=O)[C@H](CO)NC(=O)[C@@H](NC(=O)[C@H](Cc2ccccc2)OC(=O)[C@@H](NC(=O)CNC(=O)[C@H](CCC(N)=O)NC(=O)[C@@H](N)CO)[C@@H](C)O)[C@@H](C)O)C(=O)N[C@@H](CCCNC(=N)N)C(=O)N[C@@H](CCCNC(=N)N)C(=O)N[C@@H](C)C(=O)N1)C(C)C)C(=O)N[C@@H](CC(=O)O)C(=O)N[C@H](C(N)=O)[C@@H](C)O [[S2Q3-O-PLA6, D9, E16K20(Lactam), D28] G(2-29)] (H-SQGT[PhLac]TSDYSKYLDERRAKDFVQWLMDT-NH2; lactam 15-19; N-terminus assumed)

IC50 [4, 7]: 136 ± 17.8 nM | IC50 ([4]; read-out: Receptor Binding IC50, Table 4): 136 nM
Compound: GTFTSEYSKYLDSRRAQDFVQWLMNT-NH2 [[Glu^9]Glucagon(aa4-29)-NH2]

EC50 ([6]; read-out: cAMP Induction Glucagon Receptor EC50, Table 3, pegylated analogs): 0.1 ± 0.05 nM
Compound: Glucagon Cys^24 maleimido, PEG-3.4K-dimer [Glucagon C24 Dimer]

GLP-1 agonism, in words [2]: very potent GLP-1 agonism | glucagon agonism, in words [6]: weak, but full glucagon agonism | glucagon antagonism, in words [3]: no meaningful glucagon antagonism | Glucagon IC50 (nM) ([3]; Table 14): agonist | Glucagon antagonism IC50 (nM, inhibit 0.8 nM glucagon) ([3]; Table 19): weak agonist
Compound: HSQGTFTSDYARYLDARRAREFIKWLVRGRG-NH2 [ANK2 (Bayer peptide), reference compound]

IC50 (nM) (cAMP, inhibit 0.2 mM Glucagon) ([3]; Table 12): no antagonism | IC50 [4, 8]: > 1000 nM
Compound: [C^8(20kDaPEG), E^9]Glucagon(aa6-29)-NH2 (FTC(PEG 20 kDa)EYSKYLDSRRAQDFVQWLMNT-NH2)

IC50 (nM) (cAMP, inhibit 0.2 mM Glucagon) ([3]; Table 12): no antagonism | IC50 [4, 8]: > 1000 nM
Compound: [E^9, C^11(20kDaPEG)]Glucagon(aa6-29)-NH2 (FTSEYC(PEG 20 kDa)KYLDSRRAQDFVQWLMNT-NH2)
